Reference: PubChem BioAssay AID2060494 (Molecular Pharmacology Branch, DTP, NCI, 2025)

System: 435261-313-R-J1-PDC complex spheroid viability
Assay: Anticancer human tumor 435261-313-R-J1-PDC patient-derived colon adenocarcinoma cell line growth inhibition [GQUAD]
Conditions: for IC50: curve of first compound; for viability, T/C: stronger effect = lower value
How it was run: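 Viability of tumor cells grown as complex spheroids with endothelial and stromal cells, exposed to drug combinations. Top concentration at or near clinical Cmax (else 10 microM), diluted in half-log increments.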

[1] = second compound 0.0316 µM, first compound 0.0316 µM
[2] = second compound 0.0316 µM, first compound 0.316 µM
[3] = second compound 0.1 µM, first compound 0.0316 µM
[4] = second compound 0.1 µM, first compound 0.316 µM
[5] = second compound 0.316 µM, first compound 0.0316 µM
[6] = second compound 0.316 µM, first compound 0.316 µM
[7] = second compound 1 µM, first compound 0.0316 µM
[8] = second compound 1 µM, first compound 0.316 µM
[9] = second compound 3.16 µM, first compound 0.0316 µM
[10] = second compound 3.16 µM, first compound 0.316 µM
[11] = second compound 10 µM, first compound 0.0316 µM
[12] = second compound 10 µM, first compound 0.316 µM
[13] = second compound 0.0316 µM, first compound 0.1 µM
[14] = second compound 0.0316 µM, first compound 1 µM
[15] = second compound 0.0316 µM, first compound 3.16 µM
[16] = second compound 0.0316 µM, first compound 10 µM
[17] = second compound 0.1 µM, first compound 0.1 µM
[18] = second compound 0.1 µM, first compound 1 µM
[19] = second compound 0.1 µM, first compound 3.16 µM
[20] = second compound 0.1 µM, first compound 10 µM
[21] = second compound 0.316 µM, first compound 0.1 µM
[22] = second compound 0.316 µM, first compound 1 µM
[23] = second compound 0.316 µM, first compound 3.16 µM
[24] = second compound 0.316 µM, first compound 10 µM
[25] = second compound 1 µM, first compound 0.1 µM
[26] = second compound 1 µM, first compound 1 µM
[27] = second compound 1 µM, first compound 3.16 µM
[28] = second compound 1 µM, first compound 10 µM
[29] = second compound 3.16 µM, first compound 0.1 µM
[30] = second compound 3.16 µM, first compound 1 µM
[31] = second compound 3.16 µM, first compound 3.16 µM
[32] = second compound 3.16 µM, first compound 10 µM
[33] = second compound 10 µM, first compound 0.1 µM
[34] = second compound 10 µM, first compound 1 µM
[35] = second compound 10 µM, first compound 3.16 µM
[36] = second compound 10 µM, first compound 10 µM
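Further: spheroids exposed to the agents for seven days before readout.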
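Wherever viability, T/C is given: percent of vehicle control viability with DMSO wells as 100%.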

CC[C@@]1(O)C(=O)OCc2c1cc1n(c2=O)Cc2cc3c(CN(C)C)c(O)ccc3nc2-1 + Cc1cnc(CNC(=O)c2c(=O)c3ccc(N4CCCN(C)CC4)nc3n3c2sc2ccccc23)cn1
IC50 (second compound 0.0316 µM): > 316 nM
IC50 (second compound 0.1 µM): > 316 nM
IC50 (second compound 0.316 µM): 113 nM
IC50 (second compound 1 µM): < 0.999 nM
IC50 (second compound 3.16 µM): < 0.999 nM
IC50 (second compound 10 µM): < 0.999 nM
viability, T/C (second compound 0.0316 µM, first compound 0.000999 µM): 66.6%
viability, T/C (second compound 0.0316 µM, first compound 0.00316 µM): 63%
viability, T/C (second compound 0.0316 µM, first compound 0.00999 µM): 73%
viability, T/C [1]: 53%
viability, T/C (second compound 0.0316 µM, first compound 0.0999 µM): 60.6%
viability, T/C [2]: 72.1%
viability, T/C (second compound 0.1 µM, first compound 0.000999 µM): 57.3%
viability, T/C (second compound 0.1 µM, first compound 0.00316 µM): 69%
viability, T/C (second compound 0.1 µM, first compound 0.00999 µM): 58.7%
viability, T/C [3]: 50.9%
viability, T/C (second compound 0.1 µM, first compound 0.0999 µM): 63.2%
viability, T/C [4]: 53.4%
viability, T/C (second compound 0.316 µM, first compound 0.000999 µM): 53.1%
viability, T/C (second compound 0.316 µM, first compound 0.00316 µM): 59.2%
viability, T/C (second compound 0.316 µM, first compound 0.00999 µM): 50.5%
viability, T/C [5]: 55.8%
viability, T/C (second compound 0.316 µM, first compound 0.0999 µM): 46.2%
viability, T/C [6]: 49.3%
viability, T/C (second compound 1 µM, first compound 0.000999 µM): 31.9%
viability, T/C (second compound 1 µM, first compound 0.00316 µM): 48.8%
viability, T/C (second compound 1 µM, first compound 0.00999 µM): 35.2%
viability, T/C [7]: 43.4%
viability, T/C (second compound 1 µM, first compound 0.0999 µM): 47.6%
viability, T/C [8]: 34.1%
viability, T/C (second compound 3.16 µM, first compound 0.000999 µM): 16.9%
viability, T/C (second compound 3.16 µM, first compound 0.00316 µM): 20.2%
viability, T/C (second compound 3.16 µM, first compound 0.00999 µM): 21.8%
viability, T/C [9]: 16%
viability, T/C (second compound 3.16 µM, first compound 0.0999 µM): 12.1%
viability, T/C [10]: 8.56%
viability, T/C (second compound 10 µM, first compound 0.000999 µM): 0.19%
viability, T/C (second compound 10 µM, first compound 0.00316 µM): 0.19%
viability, T/C (second compound 10 µM, first compound 0.00999 µM): 0.22%
viability, T/C [11]: 0.23%
viability, T/C (second compound 10 µM, first compound 0.0999 µM): 0.23%
viability, T/C [12]: 0.22%

COc1cc(C2c3cc4c(cc3C(OC3OC5COC(C)OC5C(O)C3O)C3COC(=O)C23)OCO4)cc(OC)c1O (stereo unspecified) + Cc1cnc(CNC(=O)c2c(=O)c3ccc(N4CCCN(C)CC4)nc3n3c2sc2ccccc23)cn1
IC50 (second compound 0.0316 µM): > 10000 nM
IC50 (second compound 0.1 µM): > 10000 nM
IC50 (second compound 0.316 µM): > 10000 nM
IC50 (second compound 1 µM): < 31.6 nM
IC50 (second compound 3.16 µM): < 31.6 nM
IC50 (second compound 10 µM): < 31.6 nM
viability, T/C [1]: 77.6%
viability, T/C [13]: 59.1%
viability, T/C [2]: 60.8%
viability, T/C [14]: 56.3%
viability, T/C [15]: 55%
viability, T/C [16]: 54.2%
viability, T/C [3]: 86.6%
viability, T/C [17]: 63.6%
viability, T/C [4]: 54.2%
viability, T/C [18]: 60.7%
viability, T/C [19]: 47.1%
viability, T/C [20]: 54.5%
viability, T/C [5]: 48.3%
viability, T/C [21]: 60%
viability, T/C [6]: 53.1%
viability, T/C [22]: 53%
viability, T/C [23]: 51.8%
viability, T/C [24]: 50.7%
viability, T/C [7]: 31.6%
viability, T/C [25]: 38.1%
viability, T/C [8]: 39%
viability, T/C [26]: 43%
viability, T/C [27]: 34.3%
viability, T/C [28]: 35.6%
viability, T/C [9]: 16.7%
viability, T/C [29]: 16.3%
viability, T/C [10]: 11.1%
viability, T/C [30]: 12%
viability, T/C [31]: 19.7%
viability, T/C [32]: 5.43%
viability, T/C [11]: 0.14%
viability, T/C [33]: 0.13%
viability, T/C [12]: 0.12%
viability, T/C [34]: 0.12%
viability, T/C [35]: 0.2%
viability, T/C [36]: 0.14%

Cc1cccc(N(C)C(=O)C2C(O)CCN2c2nc(C)cc(C(F)(F)F)c2C#N)c1 (stereo unspecified) + Cc1cnc(CNC(=O)c2c(=O)c3ccc(N4CCCN(C)CC4)nc3n3c2sc2ccccc23)cn1
IC50 (second compound 0.0316 µM): > 10000 nM
IC50 (second compound 0.1 µM): > 10000 nM
IC50 (second compound 0.316 µM): > 10000 nM
IC50 (second compound 1 µM): < 31.6 nM
IC50 (second compound 3.16 µM): < 31.6 nM
IC50 (second compound 10 µM): < 31.6 nM
viability, T/C [1]: 72.9%
viability, T/C [13]: 76.9%
viability, T/C [2]: 73.3%
viability, T/C [14]: 63.7%
viability, T/C [15]: 75.8%
viability, T/C [16]: 81.6%
viability, T/C [3]: 59.2%
viability, T/C [17]: 66%
viability, T/C [4]: 52.2%
viability, T/C [18]: 56.3%
viability, T/C [19]: 61.5%
viability, T/C [20]: 62.3%
viability, T/C [5]: 49.1%
viability, T/C [21]: 52.5%
viability, T/C [6]: 65.3%
viability, T/C [22]: 51.7%
viability, T/C [23]: 51.1%
viability, T/C [24]: 53%
viability, T/C [7]: 42%
viability, T/C [25]: 53%
viability, T/C [8]: 47.9%
viability, T/C [26]: 51.6%
viability, T/C [27]: 48.6%
viability, T/C [28]: 45.3%
viability, T/C [9]: 16.1%
viability, T/C [29]: 21%
viability, T/C [10]: 17%
viability, T/C [30]: 17.3%
viability, T/C [31]: 12.8%
viability, T/C [32]: 9.97%
viability, T/C [11]: 0.21%
viability, T/C [33]: 5.23%
viability, T/C [12]: 6.24%
viability, T/C [34]: 0.26%
viability, T/C [35]: 0.33%
viability, T/C [36]: 0.25%
